Assay results from US10813938B2 (priority 2015, dated 2020).
In brackets after ≈: the same amount, converted by molar mass.

Legend:
[1] = RH stability study (~97% RH, XRPD before/after); conditions: ~97% relative humidity, 1 day, ambient temperature; FIG. 16
[2] = physchem; conditions: pH 6.8, aqueous buffer, thermodynamic from solid
Experimental: The injection volume was 15 μL. […] The following gradient was used: […]

Row | SMILES | Solid form after exposure to ~97% RH (XRPD) [1] | solubility at 24 h [2] [mg/mL]
1 | Cn1c(=O)c2c(ncn2C)n(C)c1=O [Caffeine] | conversion to the hydrate | 
2 | O=C(O[C@@H]1Cc2c(O)cc(O)cc2O[C@@H]1c1cc(O)c(O)c(O)c1)c1cc(O)c(O)c(O)c1 [EGCG, Epigallocatechin gallate] |  | 24 (≈ 52.4 mM)
